Experimental data published in paper PMC11243320, “Tailoring Fibroblast-Activation Protein Targeting for Theranostics: A Comparative Preclinical Evaluation of the ^68Ga- and ^177Lu-Labeled Monomeric and Dimeric Fibroblast-Activation Protein Inhibitors DOTA.SA.FAPi and DOTAGA.(SA.FAPi)2” (Molecules, 2024).

What was measured:
[1] = Lipophilicity LogD octanol/PBS pH 7.4, shake-flask method; assay type: physicochemical
Method: (§1) The lipophilicity (LogDoctanol/PBS) and protein binding of the four radiotracers in human serum were determined as described in the Supplemental Data. […]
minimum conjugate amount. Briefly, the Ge-68/Ga-68 generator was eluted with 5 mL HCl 0.1 N and the eluate (~300 MBq) was loaded onto a cation exchange column (Strata-XC, Phenomenex). […]
After the labeling with gallium-68 or lutetium-177 and the quality control of the generated radiotracers, one equivalent of either natGa(NO3)3 or natLuCl3∙6H2O was added to the relevant radiolabeling solutions. […] The homogeneity was determined by HPLC, […]
Lipophilicity /Protein Binding Studies and Metabolic Stability in Human Serum The lipophilicity (LogD Octanol/PBS, pH 7.4) was estimated by the “shake –flask” method: the labelled conju-gate (20 pmol; 0.3 MBq) was added to a 1:1 mixture of 1-octanol (500 μL) and PBS (500 μL, pH 7.4). […] From each phase, an aliquot (50 μL) was pipetted out and measured in a gamma counter. […] The partition coefficient was calculated as the average log ratio of the radioactivity in the organic fraction and […]

human serum proteins = test: Binding to human serum proteins, 30 min incubation; assay type: in vitro ADME; details: 37 °C
Method: as §1
minimum conjugate amount. Briefly, the Ge-68/Ga-68 generator was eluted with 5 mL HCl 0.1 N and the eluate (~300 MBq) was loaded onto a cation exchange column (Strata-XC, Phenomenex). Gallium-68 was eluted with 700 μL of a mixture of 5.5 M NaCl / 0.1 M HCl (prepared by mixing 0.530 mL of ultrapure 30% aq. HCl and 49.5 mL of 5.5M NaCl) directly into a vial containing 400 μL of 1.8 M sodium acetate buffer (pH 4.3) for DOTA.SA.FAPi or 2 mL 1.45 M HEPES (pH 4.1) for DOTAGA.(SA.FAPi)2, 2 mL H2O (only in case of DOTA.SA.FAPi), 200 μL of EtOH, and 20 μg (approximately 20 nmol) of the conjugate, followed by Sep-Pak C-18 purification to remove uncomplexed gallium-68. The purified [68Ga]Ga-DOTA.SA.FAPi and [68Ga]Ga-DO,TAGA.(SA.FAPi)2 were eluted in 2.7 mL of a solution of 12% EtOH in PBS. […]
The 68Ga- and 177Lu-labelled radiotracers (20 pmol; 0.3 MBq) were incubated with commercially available human serum (0.5 mL) at 37 °C for 30 min. […] After careful separation of the two phases, the respective activities were measured in a gamma counter, followed by determination of the percentage of the radiotracer that bound […]

N#C[C@@H]1CC(F)(F)CN1C(=O)CNC(=O)c1ccnc2ccc(OCCCCNc3c(NCCNC(=O)CN4CCN(CC(=O)[O-])CCN(CC(=O)[O-])CCN(CC(=O)[O-])CC4)c(=O)c3=O)cc12.[177Lu+3] [[^177Lu]Lu-DOTA.SA.FAPi]
Lipophilicity LogDoctanol/PBS-pH7.4 [1]: −2.86 ± 0.06
Percentage of human serum protein bound activity (human serum proteins): 9.9 ± 4.4%

N#C[C@@H]1CC(F)(F)CN1C(=O)CNC(=O)c1ccnc2ccc(OCCCCNc3c(NCCNC(=O)CN4CCN(CC(=O)[O-])CCN(CC(=O)[O-])CCN(CC(=O)[O-])CC4)c(=O)c3=O)cc12.[68Ga+3] [[^68Ga]Ga-DOTA.SA.FAPi]
Lipophilicity LogDoctanol/PBS-pH7.4 [1]: −3.38 ± 0.03
Percentage of human serum protein bound activity (human serum proteins): 10.6 ± 3.9%
